Broadly, the IC50 is the midpoint of a concentration-inhibition curve.

Several values for one entry are separate records, joined by “and”; a condition that tells them apart may be missing. Identical values can stand only once. Like-named read-outs stand apart in the source and are kept apart here.

Experiment [1] has as its system rat intestinal α-glucosidase. Nature of the experiment: Rat intestinal α-glucosidase inhibitory activity. The class given is biochemical. The following applies: IC50 > 1000 μM = inactive. As to the method:
The inhibitory activity of rat intestinal α-glucosidase was determined according to previously reported method with slight modifications. This procedure was performed by classifying four mixtures in different groups. The mixture (1) labelled “Blank of enzyme reaction” contained the mixture and DMSO (10 µL), sodium phosphate buffer (50 µL), glucose kit (80 µL), enzyme (20 µL) and substrate (20 µL maltose, sucrose 20 µL). A 10 µL of sample and samples with various concentrations of compounds was added to the well Plates (3) and (4). A 50 µL of sodium phosphate buffer (pH 6.9) was then added to well Plates (1) and (3), and a 30 µL of the buffer was added to well Plates (2) and (4), respectively. The substrate (maltose, 20 µL; sucrose 20 µL) was then added to the Plates (2) and (4). A glucose kit (80 µL each) and the enzyme (20 µL) were added to all plates and were incubated for 10 min for maltose and 40 min for sucrose. Finally, the absorbance was then measured at λ = 520 nm using a microplate reader (BioTek ELx800TM, BioTek Instruments, Inc., Winooski, VT, USA).

A short description of experiment [2]: DPPH radical scavenging assay. As to conditions: for IC50: IC50 > 1000 μM = inactive. As to the method: DPPH (1,1-diphenyl-2-picrylhydrazyl) was used for the antioxidant test using quercetin and gallic acid as controls. The compounds were diluted at concentrations of 159.73, 79.87, 39.93, 19.97, 9.98 µg/mL. A total 1 mL of DPPH 6 × 10^−5 M solution, complete with 33 µL of the compound, was incubated at 37 °C for 20 min. […] The radical inhibitory activity was calculated using the equation [(Ab-As)/Ab] × 100%.
(Loss of DPPH colour is used to gauge radical scavenging.)

Experiment [3] deals with T1, Porcine pancreatic α-amylase (Sus scrofa, UniProt P00690).
T1 sequence (P00690 16-511): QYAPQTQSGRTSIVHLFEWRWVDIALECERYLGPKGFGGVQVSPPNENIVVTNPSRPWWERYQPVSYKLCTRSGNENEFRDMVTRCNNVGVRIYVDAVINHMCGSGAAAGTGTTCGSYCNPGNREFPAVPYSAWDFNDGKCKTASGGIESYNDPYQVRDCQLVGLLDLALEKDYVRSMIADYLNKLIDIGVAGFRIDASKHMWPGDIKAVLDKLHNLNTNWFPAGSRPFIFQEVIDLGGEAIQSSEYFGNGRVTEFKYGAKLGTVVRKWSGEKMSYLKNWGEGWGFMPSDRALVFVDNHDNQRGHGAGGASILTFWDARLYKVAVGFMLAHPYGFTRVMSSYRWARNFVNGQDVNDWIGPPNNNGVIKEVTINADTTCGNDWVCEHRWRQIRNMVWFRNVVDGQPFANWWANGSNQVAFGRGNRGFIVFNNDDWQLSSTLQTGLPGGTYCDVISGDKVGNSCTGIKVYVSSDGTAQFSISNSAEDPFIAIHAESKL
The experiment in a line: α-Amylase inhibitory activity. The class given is biochemical. The following applies: read-out: α-Amylase Starch IC50. As to the method: The modified α-amylase enzyme inhibition test was conducted for antidiabetic activity evaluation. A total of 10 mg sample was dissolved in 1 mL DMSO and 0.1 M phosphate buffer and 5 mg α-amylase solution (Porcine pancreatic α-amylase) in 1 mL phosphate buffer pH 6.9 was added. A 100 mg of potato starch (substrate) was heated in 5 mL of 0.1 M phosphate buffer for 5 min and cooled to room temperature. Then, 20 µL of the sample and 50 µL of substrate were mixed into 30 µL of phosphate buffer. The mixture was pre-incubated for 5 min followed by the addition of 20 µL of α-amylase enzyme and then incubation at 37 °C for 15 min. The color development was performed by adding 50 µL of 1M HCl and 50 µL of 10% iodine solution. Finally, the absorbance was measured at a wavelength of 650 nm.

Experiment [4] is described as follows: Ferric reducing-antioxidant power (FRAP) assay. The following applies: for FRAP: reduction power. As to the method: The FRAP assay was determined according to the described method using 300 mM acetate buffer, 40 mM HCl, 10 mM (2,4,6 Tris(2-pyridyl)-s-triazine (TPTZ)), 20 mM FeCl3·6H2O. For standard curve comparison, a 10:1:1 (acetate buffer: TPTZ: H2O) and sample ratio 10:1:1 (acetate buffer: TPTZ: FeCl3·6H2O) were constructed. The standard curve was prepared using various concentrations of FeSO4·7H2O. The reaction mixture was incubated at 37 °C for 30 min followed by measurement of the absorbance at 593 nm. In this test, the reduction capacity of the tested compound calculated concerning the reaction signal given by the Fe^2+ solution. The FRAP value was expressed as µM Fe^2+/g ((Frap value of sample (µM) = abs (sample) × FRAP value of std (µM)/abs (std).

The nature of experiment [5]: ABTS radical scavenging assay. The following applies: for IC50: IC50 > 1000 μM = inactive. As to the method: The antioxidant activity was also determined by free radical ABTS (2,2″-azinobis (3-ethyl benzothiazoline-6-sulfonic acid) according to the reported procedure. In this test, 7 mM ABTS solution was prepared and mixed with a buffer solution of potassium peroxydisulfate, incubated for 16 h, and protected from light. A total of 10 μL of the sample and 1 mL of the ABTS was incubated for 4 min and measured at a wavelength of 734 nm. This experiment was performed triplo using quercetin and gallic acid as controls. The ABTS inhibitory activity was calculated by the equation [(Ab-As)/Ab] × 100%.

Experiment [6] deals with P. falciparum strain 3D7. The experiment in a line: In vitro antiplasmodial assay (pLDH method). The class given is cell-based. The following applies: Plasmodium falciparum; for inhibition at 10 µg/mL: read-out: % Inhibition (10 μg/mL). As to the method:
The parasites used in this test were synchronized (Ring stage) with ± 0.3% parasitemia (2% hematocrit). […] The well plates were put in the chamber with mix gas atmosphere (O2 5%, CO2 5% and N2 90%) and incubated for 72 h at 37 °C. After that, the plate was harvested and stored at −30 °C. After 24 h, the pLDH assay was performed by reading the absorbance at 650 nm using a SpectraMax Paradigm® Multi-Mode microplate reader.

In experiment [7] the target is α-glucosidase. The following applies: cited from earlier work.
Details of experiment [8]: method as in PMID 33711431. The following applies: read-out: DPPH scavenging IC50; cited from earlier work.
The test system of experiment [9] is Plasmodium falciparum. As to conditions: read-out: IC50 against Plasmodium falciparum; cited from earlier work.
Setting [10] is: substrate maltose, read-out: α-Glucosidase Maltose IC50.
The mark [11] stands for this setting: substrate sucrose, read-out: α-Glucosidase Sucrose IC50.
Setting [12] is: P. falciparum 3D7, 10 μg/mL, 72 h.
[13] abbreviates: P. falciparum 3D7, 72 h, read-out: IC50.

As for `COc1cc(C)c2c(=O)c3c(O)cc(OC)cc3oc2c1` [Compound 1, lichexanthone], the “α-Glucosidase Maltose IC50” value in [1] (substrate maltose) is “inactive”. Besides, the IC50 in experiment [1] (setting [10]), in experiment [1] (setting [11]), in [2], in [3] and in experiment [5] was > 1000 µM in each case. For the same compound, in [1] (substrate sucrose), the “α-Glucosidase Sucrose IC50” value was “inactive”. In addition, the FRAP in [4] was determined as 5.7 ± 0.57 µM Fe^2+/g. The inhibition at 10 µg/mL in [6] (setting [12]) is < 10%.
Take `CC(C)=CCC/C(C)=C/Cc1c(O)c(O)cc2oc3cc(O)c(CC=C(C)C)c(O)c3c(=O)c12` [norcowanin]: the IC50 in experiment [7] was 1.7 µM.
Turning to `O=C1O[C@H]([C@@H](O)CO)C(O)=C1O` [Ascorbic acid, reference compound], the IC50 in experiment [8] was 48 µM. Moreover, the FRAP in [4] was 30.6 ± 0.27 µM Fe^2+/g; in experiment [4] (listed as ascorbic acid) it was 30.6 µM Fe^2+/g.
Consider `C=CC(C)(C)c1cc(O)c(O)c2c(=O)c3cc4c(c(O)c3oc12)OC(C)(C)C=C4` [Compound 2, subelliptenone H], for which the IC50 in experiment [1] (setting [11]) is 43.8 ± 1.51 µM; in [2], 19.4 ± 0.15 µM; in [3] it was 41.3 ± 1.24 µM; in [5], 2.7 ± 0.05 µM; in experiment [6] (setting [13]), 3.3 ± 0.04 µM. For the same compound, in experiment [2], the “DPPH % Inhibition (159.7 μg/mL)” value came to 95.29 ± 0.05%. In addition, in experiment [4], the FRAP is 166.3 µM Fe^2+/g and 166.3 ± 1.47 µM Fe^2+/g. The “ABTS % Inhibition (99 μg/mL)” value in experiment [5] worked out at 97.29 ± 0.04%. In addition, the inhibition at 10 µg/mL in experiment [6] (setting [12]) came to 86.8 ± 0.33%.
Regarding `C=CC(C)(C)c1cc(O)c2oc3c(O)cccc3c(=O)c2c1O` [Compound 3, 12b-hydroxy-des-D-garcigerrin A], the IC50 in experiment [1] (setting [10]) is 109 ± 1.31 µM; in [1] (setting [11]), 79.6 ± 2.01 µM; in experiment [2], 18.9 ± 0.1 µM; in [3], 28.7 ± 0.35 µM; in [5], 0.05 ± 0.01 µM; in experiment [6] (setting [13]) it was 5 ± 0.04 µM. Besides, the “DPPH % Inhibition (159.7 μg/mL)” value in experiment [2] turned out to be 96.83 ± 0.03%. The FRAP in experiment [4] was found to be 203.9 ± 1.19 µM Fe^2+/g. Besides, the “Iron reducing power, fold greater than ascorbic acid” value in experiment [4] (relative to ascorbic acid) was “approximately 6 fold”. Besides, the “ABTS % Inhibition (99 μg/mL)” value in experiment [5] is 98.31 ± 0.05%. Besides, the “ABTS IC50, fold lower than quercetin” value in [5] (relative to quercetin) is 4 fold. For the same compound, the inhibition at 10 µg/mL in experiment [6] (setting [12]) was 87.9 ± 0.23%.
With `C[C@H]1O[C@H](O[C@H]2[C@H](O)[C@@H](O)[C@@H](O[C@H]3[C@H](O)[C@@H](O)C(O)O[C@@H]3CO)O[C@@H]2CO)[C@H](O)[C@@H](O)[C@@H]1N[C@H]1C=C(CO)[C@@H](O)[C@H](O)[C@H]1O` (stereo partly drawn) [Acarbose, reference compound], the figures for the IC50 in experiment [1] (setting [10]) and in experiment [1] (setting [11]) were 3.4 ± 0.27 µM and 4.6 ± 0.51 µM, respectively.
With garcinoxanthones SV, the IC50 in [8] was 68.5 µM.
Take `O=c1c(O)c(-c2ccc(O)c(O)c2)oc2cc(O)cc(O)c12` [Quercetin, reference compound]: in experiment [2], the “DPPH % Inhibition (159.7 μg/mL)” value was 96.34 ± 0.01% and half-maximal inhibition (IC50) required 4.1 ± 0.01 µM. In addition, in [5], the “ABTS % Inhibition (99 μg/mL)” value was determined as 97.58 ± 0.01% and the IC50 came out at 0.17 ± 0.01 µM.
In the case of `CC(C)=CCc1c(O)cc2oc3c(CC=C(C)C)c(O)c(O)c(CC=C(C)C)c3c(=O)c2c1O` [garcinone E], the IC50 in experiment [8] is 63.1 µM.
Turning to `C=CC(C)(C)c1cc(O)c2oc3c4c(ccc3c(=O)c2c1O)C=CC(C)(C)O4` [Compound 4, garciniaxanthone B], the IC50 in [1] (setting [10]) came to 139.4 ± 1.21 µM; in [1] (setting [11]) it was 75.9 ± 2.11 µM; in experiment [2], 14.1 ± 0.07 µM; in [3], 10.8 ± 0.04 µM; in experiment [5], 7.9 ± 0.01 µM. In addition, the “DPPH % Inhibition (159.7 μg/mL)” value in experiment [2] was 95.38 ± 0.08%. Further, the FRAP in [4] was 192.7 µM Fe^2+/g and 192.7 ± 0.77 µM Fe^2+/g. For the same compound, the “ABTS % Inhibition (99 μg/mL)” value in [5] was found to be 96.15 ± 0.01%. For the same compound, the inhibition at 10 µg/mL in experiment [6] (setting [12]) is < 10%.
For the compound `O=c1c2cc(O)c(O)cc2oc2cc(O)cc(O)c12` [1,3,6,7-tetrahydroxyxanthone], the concentration for half-maximal inhibition (IC50) in [8] is 28.4 µM.
As for `CCN(CC)CCCC(C)Nc1ccnc2cc(Cl)ccc12` (stereo not drawn) [Chloroquine, reference compound], the IC50 in experiment [9] is 0.3 µM; in experiment [6] (3D7, 72 h) it was 0.006 ± 0.01 µM. Further, the inhibition at 10 µg/mL in experiment [6] (3D7, 72 h) worked out at 98.8 ± 0.25%.
On to subelliptenone F, for which the IC50 in [7] was 4.1 µM.
Turning to `C=CC(C)(C)c1cc(O)c2oc3c4c(ccc3c(=O)c2c1O)[C@H](O)[C@H](O)C(C)(C)O4` [Compound 5, garcigerin A], the IC50 in experiment [1] (setting [10]) stood at 91 ± 1.14 µM; in experiment [1] (setting [11]), 37.4 ± 1.2 µM; in [2], 20.4 ± 0.22 µM; in experiment [3], 18.7 ± 0.54 µM; in experiment [5] it was 6.5 ± 0.02 µM. In addition, the “DPPH % Inhibition (159.7 μg/mL)” value in experiment [2] is 96.60 ± 0.05%. The FRAP in experiment [4] is 187.8 µM Fe^2+/g and 187.8 ± 1.36 µM Fe^2+/g. In addition, in experiment [5], the “ABTS % Inhibition (99 μg/mL)” value is 97.40 ± 0.03%. The inhibition at 10 µg/mL in experiment [6] (setting [12]) was < 10%.
In the case of `O=C(O)c1cc(O)c(O)c(O)c1` [Gallic acid, reference compound], in [2], the “DPPH % Inhibition (159.7 μg/mL)” value is given as 97.21± 0.01% and inhibition was half-maximal at 3 ± 0.01 µM (IC50). Besides, in experiment [5], the “ABTS % Inhibition (99 μg/mL)” value was found to be 96.30 ± 0.01% and the midpoint of inhibition, the IC50, lay at 0.7 ± 0.01 µM.
